As usually defined, the IC50 is the point on the concentration scale where inhibition reaches its midpoint. Low readings indicate greater potency, high ones weaker potency.

Structures can show the parent of a compound that is named as a salt.

This assay addresses T1, Leukotriene D4 receptor (Cavia porcellus, UniProt Q2NNR5).
T1 construct: The trachea and lung were removed; from tissue; host or cells: guinea pig (male Hartley) trachea and lung, crude membrane fraction
T1 sequence (Q2NNR5 1-340): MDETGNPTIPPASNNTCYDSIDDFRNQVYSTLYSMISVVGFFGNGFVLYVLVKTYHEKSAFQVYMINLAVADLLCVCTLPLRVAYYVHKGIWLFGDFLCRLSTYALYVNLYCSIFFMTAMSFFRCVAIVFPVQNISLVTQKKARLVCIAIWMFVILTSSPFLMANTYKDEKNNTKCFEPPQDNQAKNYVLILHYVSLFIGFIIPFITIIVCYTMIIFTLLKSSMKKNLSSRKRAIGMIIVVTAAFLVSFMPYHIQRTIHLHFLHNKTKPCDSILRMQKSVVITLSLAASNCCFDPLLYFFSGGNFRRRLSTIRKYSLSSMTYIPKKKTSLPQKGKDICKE
Put plainly: 3H-Leukotriene D4 receptor binding (guinea pig crude lung membrane). The note with it: 3H-Leukotriene D4 (0.3 nM), pH 7.5, 25° C., 30 minutes. The protocol:
^3 H-Leukotriene D4 receptor binding (i) Test Method (a) Crude lung membrane preparation Male Hartly strain guinea pigs were sacrificed by decapitation. The trachea and lung were removed and homogenized buffer (0.25M sucrose, 10 mM Tris-HCl pH 7.5, 0.1 mM EDTA) by using Polytoron (Kinematica). The homogenate was centrifuged (1000×g, 10 min) to remove tissue clumps and the supernatant was centrifuges (14000×g, 20 min) to yield pellets. The pellets were resuspended in buffer (5 mM Tris-HCl pH 7.5), homogenized with a teflon homogenizer and centrifuged (14000×g, 20 min) to yield pellets which were referred to as crude membrane fractions. The obtained pellets were stored at -70° C. until use. (b) ^3 H-Leukotriene D4 binding to preparation membrane Frozen crude membrane fractions were thawed and resuspended in Medium 1 (10 mM Tris-HCl pH 7.5, 10 mM CaCl2, 10 mM MgCl2, 5 mM cysteine, 5 mM glycine). In binding assays, ^3 H-Leukotriene D4 (0.3 nM) and drug were incubated with 100 μl of the membrane preparation in Medium 1 at 25° C. for 30 minutes in a final volume of 500 μl. Separation of receptor-bound from free ^3 H-Leukotriene D4 is achieved by immediate filtration through Whatman GF/B filters under vacuum and washed three times with 5 ml of ice-cold buffer (10 mM Tris-HCl pH 7.5). Non-specific binding was defined as binding in the presence of 1 μM Leukotriene D4. The radioactivity retained on rinsed filters was determined by a liquid-scintillation counter (Packerd TRI-CARB 4530).
For `CC(C)(C)c1csc(-c2cc3cc(OCc4cccc(-c5nnn[nH]5)c4)ccc3o2)n1` [13-2), 5-{3-[2-(4-tert-Butylthiazol-2-yl)benzofuran-5-yloxymethyl]phenyl}-1H-tetrazole], the IC50 amounted to 17.8 nM.

The compound `CC(C)(Cc1ccc2oc(-c3nc(C(C)(C)C)cs3)cc2c1)C(=O)Nc1nnn[nH]1` [19-2), 4-tert-Butyl-2-[5-{2-methyl-2-(1H-tetrazol-5-yl)carbamoylpropyl}benzofuran-2-yl]thiazole] had an IC50 of 67.7 nM.

The compound `CC(C)(C)c1csc(-c2cc3cc(OCc4ccccc4Cc4nnn[nH]4)ccc3o2)n1` [Example 12, 5-{2-(2-(4-tert-butylthiazol-2-yl)benzofuran-5-yloxymethyl]phenylmethyl}-1H-tetrazole] returned an IC50 of 38.2 nM.

On to `Cc1ccccc1S(=O)(=O)NC(=O)c1ccccc1COc1ccc2oc(-c3nc(C(C)(C)C)cs3)cc2c1` [Example 18, 4-tert-butyl-2-{5-[2-(2-methylbenzenesulfonamidocarbonyl)phenylmethoxy]benzofuran-2-yl}thiazole], for which the IC50 worked out at 48.8 nM.

Compound `CC(C)(C)c1csc(-c2cc3cc(OCc4ccccc4CC(=O)O)ccc3o2)n1` [Example 51, 4-tert-butyl-2-[5-(2-carboxymethylphenylmethoxy)benzofuran-2-yl]thiazole hydrochloride] showed a concentration for half-maximal inhibition (IC50) of 13.8 nM.

The record behind these values is patent US5296495A, “Thiazolylbenzofuran derivatives and pharmaceutical composition comprising the same” (Fujisawa Pharmaceutical Co., Ltd., priority 1991, dated 1994).
